In PubChem BioAssay (NCI):
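Dose response: 5 concentrations. Exposure: 48 h. Format: 96-well plates. Endpoint: linear interpolation; highest concentration if not reached. At the TGI there is no net growth.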

How the values were obtained:
Test in all cases: growth of human tumour cells (NCI), 48 h
PC-3 prostate = test system: PC-3 prostate
SN12C renal = test system: SN12C renal
OVCAR-3 ovarian = test system: OVCAR-3 ovarian
MALME-3M melanoma = test system: MALME-3M melanoma
SK-MEL-5 melanoma = test system: SK-MEL-5 melanoma
MDA-MB-435 = test system: MDA-MB-435
NCI-H460 lung = test system: NCI-H460 lung
HT29 colon = test system: HT29 colon
SNB-19 CNS = test system: SNB-19 CNS
OVCAR-4 ovarian = test system: OVCAR-4 ovarian
UO-31 renal = test system: UO-31 renal
SW-620 colon = test system: SW-620 colon
MOLT-4 leukemia = test system: MOLT-4 leukemia
SF-268 CNS = test system: SF-268 CNS
NCI-H23 lung = test system: NCI-H23 lung
OVCAR-8 ovarian = test system: OVCAR-8 ovarian
MDA-N = test system: MDA-N
SF-295 CNS = test system: SF-295 CNS

For `COc1ccc(C[C@@H](CO)NC2=C(C#N)CCC2)cc1`, the TGI (PC-3 prostate) was over 100 µM, the TGI (SN12C renal) was over 100 µM and the TGI (OVCAR-3 ovarian) was over 100 µM. For the same compound, the TGI (MALME-3M melanoma) was over 100 µM, the TGI (SK-MEL-5 melanoma) was over 100 µM and the TGI (MDA-MB-435) was over 100 µM. For the same compound, the TGI (NCI-H460 lung) was over 100 µM, the TGI (HT29 colon) was over 100 µM and the TGI (SNB-19 CNS) was over 100 µM. The TGI (OVCAR-4 ovarian) was over 100 µM, the TGI (UO-31 renal) was over 100 µM and the TGI (SW-620 colon) was over 100 µM. For the same compound, the TGI (MOLT-4 leukemia) was over 100 µM, the TGI (SF-268 CNS) was over 100 µM and the TGI (NCI-H23 lung) was over 100 µM. It also gave a TGI (OVCAR-8 ovarian) of over 100 µM, a TGI (MDA-N) of over 100 µM and a TGI (SF-295 CNS) of over 100 µM.
Work on `COc1ccc2c(c1)C(=O)Cc1ccccc1CC2` yielded a TGI (SN12C renal) of over 100 µM, a TGI (OVCAR-3 ovarian) of over 100 µM and a TGI (MALME-3M melanoma) of over 100 µM. For the same compound, the TGI (SK-MEL-5 melanoma) was over 100 µM, the TGI (NCI-H460 lung) was over 100 µM and the TGI (HT29 colon) was over 100 µM. It also gave a TGI (SNB-19 CNS) of over 100 µM, a TGI (OVCAR-4 ovarian) of over 100 µM and a TGI (UO-31 renal) of over 100 µM. For the same compound, the TGI (SW-620 colon) was over 100 µM, the TGI (MOLT-4 leukemia) was over 100 µM and the TGI (SF-268 CNS) was over 100 µM. For the same compound, the TGI (NCI-H23 lung) was over 100 µM, the TGI (OVCAR-8 ovarian) was over 100 µM and the TGI (SF-295 CNS) was over 100 µM.
In the case of `CCOC(=O)N(NC(=O)NC(C)C)c1ccccc1`, the TGI (PC-3 prostate) is reported as over 100 µM, the TGI (SN12C renal) is reported as over 100 µM and the TGI (OVCAR-3 ovarian) is reported as over 100 µM. For the same compound, the TGI (MALME-3M melanoma) was over 100 µM, the TGI (SK-MEL-5 melanoma) was over 100 µM and the TGI (NCI-H460 lung) was over 100 µM. For the same compound, the TGI (HT29 colon) was over 100 µM, the TGI (SNB-19 CNS) was over 100 µM and the TGI (OVCAR-4 ovarian) was over 100 µM. For the same compound, the TGI (UO-31 renal) was over 100 µM, the TGI (SW-620 colon) was over 100 µM and the TGI (MOLT-4 leukemia) was over 100 µM. The TGI (NCI-H23 lung) was over 100 µM, the TGI (OVCAR-8 ovarian) was over 100 µM and the TGI (MDA-N) was over 100 µM. For the same compound, the TGI (SF-295 CNS) was over 100 µM.
For `O=C(O)CCCn1nnc2c(=O)[nH][nH]c(=O)c21`, the TGI (PC-3 prostate) was over 100 µM, the TGI (SN12C renal) was over 100 µM and the TGI (OVCAR-3 ovarian) was over 100 µM. For the same compound, the TGI (MALME-3M melanoma) was over 100 µM, the TGI (SK-MEL-5 melanoma) was over 100 µM and the TGI (MDA-MB-435) was over 100 µM. The TGI (NCI-H460 lung) was over 100 µM, the TGI (HT29 colon) was over 100 µM and the TGI (SNB-19 CNS) was over 100 µM. For the same compound, the TGI (OVCAR-4 ovarian) was over 100 µM, the TGI (UO-31 renal) was over 100 µM and the TGI (MOLT-4 leukemia) was over 100 µM. For the same compound, the TGI (NCI-H23 lung) was over 100 µM, the TGI (OVCAR-8 ovarian) was over 100 µM and the TGI (MDA-N) was over 100 µM. For the same compound, the TGI (SF-295 CNS) was over 100 µM.
In the case of `O=P1(O)c2ccccc2CCc2ccccc21`, the TGI (PC-3 prostate) is reported as over 100 µM, the TGI (SN12C renal) is reported as over 100 µM and the TGI (OVCAR-3 ovarian) is reported as over 100 µM. The TGI (SK-MEL-5 melanoma) was over 100 µM, the TGI (MDA-MB-435) was over 100 µM and the TGI (SNB-19 CNS) was over 100 µM. For the same compound, the TGI (UO-31 renal) was over 100 µM, the TGI (SW-620 colon) was over 100 µM and the TGI (MOLT-4 leukemia) was over 100 µM. It also gave a TGI (SF-268 CNS) of over 100 µM, a TGI (NCI-H23 lung) of over 100 µM and a TGI (OVCAR-8 ovarian) of over 100 µM. For the same compound, the TGI (MDA-N) was over 100 µM and the TGI (SF-295 CNS) was over 100 µM.
For `Nc1nc(I)nc2c1ncn2C1OC(COS(N)(=O)=O)C(O)C1O` (configuration not stated), the TGI (PC-3 prostate) was 0.0423 µM, the TGI (SN12C renal) was 0.032 µM and the TGI (OVCAR-3 ovarian) was 0.012 µM. The TGI (MALME-3M melanoma) was under 0.01 µM, the TGI (SK-MEL-5 melanoma) was under 0.0113 µM and the TGI (MDA-MB-435) was 0.0138 µM. It also gave a TGI (NCI-H460 lung) of 0.108 µM, a TGI (HT29 colon) of 0.0353 µM and a TGI (SNB-19 CNS) of under 0.013 µM. It also gave a TGI (OVCAR-4 ovarian) of under 0.0158 µM, a TGI (UO-31 renal) of 0.0653 µM and a TGI (SW-620 colon) of 0.165 µM. The TGI (MOLT-4 leukemia) was 0.0416 µM, the TGI (SF-268 CNS) was 0.018 µM and the TGI (NCI-H23 lung) was 0.0324 µM. It also gave a TGI (OVCAR-8 ovarian) of under 0.0106 µM, a TGI (MDA-N) of 0.0135 µM and a TGI (SF-295 CNS) of 0.168 µM.
In the case of `CCOC(=O)/C(=C\c1ccccc1)C(=O)O`, the TGI (SN12C renal) is reported as over 100 µM, the TGI (OVCAR-3 ovarian) is reported as over 100 µM and the TGI (MALME-3M melanoma) is reported as over 100 µM. The TGI (SK-MEL-5 melanoma) was over 100 µM, the TGI (NCI-H460 lung) was over 100 µM and the TGI (HT29 colon) was over 100 µM. It also gave a TGI (SNB-19 CNS) of over 100 µM, a TGI (OVCAR-4 ovarian) of over 100 µM and a TGI (UO-31 renal) of over 100 µM. For the same compound, the TGI (SW-620 colon) was over 100 µM, the TGI (MOLT-4 leukemia) was over 100 µM and the TGI (SF-268 CNS) was over 100 µM. The TGI (NCI-H23 lung) was over 100 µM, the TGI (OVCAR-8 ovarian) was over 100 µM and the TGI (SF-295 CNS) was over 100 µM.
